Source: patent publication US20020010157A1, “Composition and method for controlling insect pests and diseases on plants” (priority 2000, published 2002)

Legend:
[1] = tested on: Powdery mildew; assay: Controlled environment, 2% glyceride: powdery mildew severity on peach; type: in vivo; conditions: ‘Feng Hung’ peach
Method: (§1) Plant materials used for tests were either branches obtained from the fields or trees grew in pots in a green house.
(§2) Plants growing in pot were inoculated with pests or pathogen and sprayed with 2% glyceride emulsions. Death rate of pests or number of lesions was evaluated one to three weeks after treatment.
(§3) Since mineral oil has been widely used for insect pest and disease control in agriculture (Taschenberg, 1952; Walsh et al., 2000), it was included in the experiments for comparison.

[2] = tested on: leaf scald; assay: Controlled environment, 2% glyceride emulsion: leaf scald severity on wheat; type: in vivo
Method: as §1, §2, §3

[3] = tested on: TMV (II); assay: Controlled environment, 2% glyceride emulsion: TMV (II) severity in tomatoes; type: in vivo, tomato mosaic virus (TMV II)
Method: as §1, §2, §3

[4] = tested on: Whitefly; assay: Controlled environment, 2% glyceride emulsion: whitefly survival on cabbage; type: in vivo
Method: as §1, §2, §3

[5] = tested on: Verticillium wilt; assay: Controlled environment, 2% glyceride emulsion: Verticillium wilt severity on cabbage; type: in vivo
Method: as §1, §2, §3

[6] = tested on: Mites; assay: Controlled environment, 2% glyceride emulsion: mite survival on wheat; type: in vivo
Method: as §1, §2, §3

[7] = tested on: Powdery mildew; assay: Controlled environment, 2% glyceride: powdery mildew severity on apple; type: in vivo; conditions: ‘Delicious’ apple
Method: as §1, §2, §3

[8] = tested on: TMV (I); assay: Controlled environment, 2% glyceride emulsion: TMV (I) severity in tomatoes; type: in vivo, tobacco mosaic virus (TMV I)
Method: as §1, §2, §3

[9] = tested on: Scab; assay: Controlled environment, 2% glyceride: scab severity on apple; type: in vivo; conditions: ‘Delicious’ apple
Method: as §1, §2, §3

[10] = tested on: Brown rot; assay: Controlled environment, 2% glyceride: brown rot severity on orange; type: in vivo; conditions: ‘Qi Cheng’ orange
Method: as §1, §2, §3

[11] = tested on: Leaf-spot; assay: Controlled environment, 2% glyceride emulsion: leaf-spot severity on cabbage; type: in vivo
Method: as §1, §2, §3

[12] = tested on: Mites; assay: Controlled environment, 2% glyceride emulsion: mite survival on tomato; type: in vivo
Method: as §1, §2, §3

[13] = tested on: Powdery mildew; assay: Controlled environment, 2% glyceride: powdery mildew severity on grape; type: in vivo; conditions: ‘Long Yan’ grape
Method: as §1, §2, §3

[14] = tested on: Bacterial canker; assay: Controlled environment, 2% glyceride: bacterial canker severity on peach; type: in vivo; conditions: ‘Feng Hung’ peach
Method: as §1, §2, §3

[15] = tested on: Aphids; assay: Controlled environment, 2% glyceride emulsion: aphid survival on cabbage; type: in vivo
Method: as §1, §2, §3

[16] = tested on: Barley strip; assay: Controlled environment, 2% glyceride emulsion: Barley strip severity on wheat; type: in vivo
Method: as §1, §2, §3

[17] = tested on: Mites; assay: Controlled environment, 2% glyceride emulsion: mite survival on apple; type: in vivo, European red mite (ERM); conditions: ‘Delicious’ apple
Source text: as §1
(§4) To test the effects of different glycerides on over winter pests such as San Jose Scale (SJS) or European red mite (ERM) on pome or stone fruit trees, stems from dormant ‘Delicious’ apple trees and ‘Feng Huang’ peach trees infested with SJS were collected and dipped in 2% of different glyceride emulsions with the untreated served as control. Stems were then trimmed to 25 cm long by removing from the base, put in a plate with the base submerging in 1-cm thick water, and incubated at 23 degree C for 2 weeks in a chamber. After incubation, 15 overwintering SJS (‘Black-cap’ stage of first instar) per stem were examined microscopically and assessed for viability. Apple or peach stems containing ERM eggs were collected in late dormant and treated as described above and incubated at 28 degree C., 80% relative humidity, and 16-hour light/8-hour dark cycle. Mite viability was evaluated by the following method. Stem segment were impaled onto insect pins that had been driven through 10×12 cm white posterboard containing a thin coat of sticky gel to trip newly hatched mites and facilitate their counting. Eggs were examined every 2 days until hatch was complete. […]

[18] = tested on: Whitefly; assay: Controlled environment, 2% glyceride emulsion: whitefly survival on cotton; type: in vivo
Method: as §1, §2, §3

[19] = tested on: Mite; assay: Controlled environment, 2% glyceride emulsion: mite survival on orange; type: in vivo; conditions: ‘Qi Cheng’ orange
Method: as §1, §2, §3

[20] = tested on: Aphids; assay: Controlled environment, 2% glyceride emulsion: aphid survival on apple; type: in vivo; conditions: ‘Delicious’ apple
Method: as §1, §2, §3

[21] = tested on: Fusarium wilt; assay: Controlled environment, 2% glyceride emulsion: Fusarium wilt severity on cotton; type: in vivo
Method: as §1, §2, §3

[22] = tested on: Aphids; assay: Controlled environment, 2% glyceride emulsion: aphid survival on orange; type: in vivo; conditions: ‘Qi Cheng’ orange
Method: as §1, §2, §3

[23] = tested on: Aphids; assay: Controlled environment, 2% glyceride emulsion: aphid survival on wheat; type: in vivo
Method: as §1, §2, §3

[24] = tested on: Whitefly; assay: Controlled environment, 2% glyceride emulsion: whitefly survival on apple; type: in vivo; conditions: ‘Delicious’ apple
Method: as §1, §2, §3

[25] = tested on: Aphids; assay: Controlled environment, 2% glyceride emulsion: aphid survival on tomato; type: in vivo
Method: as §1, §2, §3

[26] = tested on: Psylla; assay: Controlled environment, 2% glyceride emulsion: psylla survival on apple; type: in vivo; conditions: ‘Delicious’ apple
Method: as §1, §2, §3

[27] = tested on: TSWV; assay: Controlled environment, 2% glyceride emulsion: TSWV severity in tomatoes; type: in vivo, tomato spotted wilt virus (TSWV)
Method: as §1, §2, §3

[28] = tested on: Bacterial ring rot; assay: Controlled environment, 2% glyceride emulsion: bacterial ring rot severity on potato; type: in vivo
Method: as §1, §2, §3

[29] = tested on: Psorosis; assay: Controlled environment, 2% glyceride: psorosis severity on orange; type: in vivo; conditions: ‘Qi Cheng’ orange
Method: as §1, §2, §3

[30] = tested on: Verticillium wilt; assay: Controlled environment, 2% glyceride emulsion: Verticillium wilt severity on cotton; type: in vivo
Method: as §1, §2, §3

[31] = tested on: Verticillium wilt; assay: Controlled environment, 2% glyceride emulsion: Verticillium wilt severity on potato; type: in vivo
Method: as §1, §2, §3

[32] = tested on: SJS; assay: Controlled environment, 2% glyceride emulsion: SJS survival on apple; type: in vivo, San Jose Scale (SJS); conditions: ‘Delicious’ apple
Source text: as §1, §4

[33] = tested on: Verticillium wilt; assay: Controlled environment, 2% glyceride emulsion: Verticillium wilt severity in tomatoes; type: in vivo
Method: as §1, §2, §3

[34] = tested on: Fusarium wilt; assay: Controlled environment, 2% glyceride emulsion: Fusarium wilt severity in tomatoes; type: in vivo
Method: as §1, §2, §3

[35] = tested on: Aphids; assay: Controlled environment, 2% glyceride emulsion: aphid survival on cotton; type: in vivo
Method: as §1, §2, §3

[36] = tested on: TICV; assay: Controlled environment, 2% glyceride emulsion: TICV severity in tomatoes; type: in vivo, tomato infectious chlorosis virus (TICV)
Method: as §1, §2, §3

[37] = tested on: Leaf spot; assay: Controlled environment, 2% glyceride: leaf spot severity on grape; type: in vivo; conditions: ‘Long Yan’ grape
Method: as §1, §2, §3

[38] = tested on: Bacterial Spot; assay: Controlled environment, 2% glyceride emulsion: bacterial spot severity in tomatoes; type: in vivo
Method: as §1, §2, §3

CCCCCCCCCCCC(=O)OCC(O)CO (centres unmarked) [Monolaurin]
disease severity, Peaches, Powdery mildew [1]: 13g % of untreated control
disease severity, Wheat, leaf scald [2]: 32f % of untreated control
disease severity, TMV (II) [3]: 43d % of untreated control
pest survival (%), Cabbage, Whitefly [4]: 28f %
disease severity, Cabbage, Verticillium wilt [5]: 46de % of untreated control
pest survival (%), Wheat, Mites [6]: 33e %
disease severity, Apples, Powdery mildew [7]: 18f % of untreated control
disease severity, TMV (I) [8]: 37e % of untreated control
disease severity, Apples, Scab [9]: 14f^z % of untreated control
disease severity, Oranges, Brown rot [10]: 34e % of untreated control
disease severity, Cabbage, Leaf-spot [11]: 23f % of untreated control
pest survival (%), Tomato, Mites [12]: 34e %
disease severity, Grapes, Powdery mildew [13]: 16g % of untreated control
disease severity, Peaches, Bacterial canker [14]: 24f % of untreated control
pest survival (%), Cabbage, Aphids [15]: 17e %
disease severity, Wheat, Barley strip [16]: 19f % of untreated control
pest survival (%), Apples, Mites [17]: 0g %
pest survival (%), Cotton, Whitefly [18]: 31f %
pest survival (%), Oranges, Mite [19]: 39e %
pest survival (%), Apples, Aphids [20]: 34e %
disease severity, Cotton, Fusarium wilt [21]: 43e^z % of untreated control
pest survival (%), Oranges, Aphids [22]: 31e %
pest survival (%), Wheat, Aphids [23]: 21e %
pest survival (%), Apples, Whitefly [24]: 31e %
pest survival (%), Tomato, Aphids [25]: 27e %
pest survival (%), Apples, Psylla [26]: 35e %
disease severity, TSWV [27]: 27e % of untreated control
disease severity, Potato, Bacterial ring rot [28]: 47e % of untreated control
disease severity, Oranges, Psorosis [29]: 32d % of untreated control
disease severity, Cotton, Verticillium wilt [30]: 48d % of untreated control
disease severity, Potato, Verticillium wilt [31]: 37e % of untreated control
pest survival (%), Apples, SJS [32]: 0f %
disease severity, Verticillium wilt [33]: 26f % of untreated control
disease severity, Fusarium wilt [34]: 29f % of untreated control
pest survival (%), Cotton, Aphids [35]: 30e %
disease severity, TICV [36]: 33f % of untreated control
disease severity, Grapes, Leaf spot [37]: 37f % of untreated control
disease severity, Bacterial Spot [38]: 18f^z % of untreated control
